# From US12195482B1 (Arcus Biosciences, Inc., priority 2022, dated 2025)
# Target: T1, Axl (Homo sapiens, UniProt P30530)
# T1 sequence (P30530 26-894): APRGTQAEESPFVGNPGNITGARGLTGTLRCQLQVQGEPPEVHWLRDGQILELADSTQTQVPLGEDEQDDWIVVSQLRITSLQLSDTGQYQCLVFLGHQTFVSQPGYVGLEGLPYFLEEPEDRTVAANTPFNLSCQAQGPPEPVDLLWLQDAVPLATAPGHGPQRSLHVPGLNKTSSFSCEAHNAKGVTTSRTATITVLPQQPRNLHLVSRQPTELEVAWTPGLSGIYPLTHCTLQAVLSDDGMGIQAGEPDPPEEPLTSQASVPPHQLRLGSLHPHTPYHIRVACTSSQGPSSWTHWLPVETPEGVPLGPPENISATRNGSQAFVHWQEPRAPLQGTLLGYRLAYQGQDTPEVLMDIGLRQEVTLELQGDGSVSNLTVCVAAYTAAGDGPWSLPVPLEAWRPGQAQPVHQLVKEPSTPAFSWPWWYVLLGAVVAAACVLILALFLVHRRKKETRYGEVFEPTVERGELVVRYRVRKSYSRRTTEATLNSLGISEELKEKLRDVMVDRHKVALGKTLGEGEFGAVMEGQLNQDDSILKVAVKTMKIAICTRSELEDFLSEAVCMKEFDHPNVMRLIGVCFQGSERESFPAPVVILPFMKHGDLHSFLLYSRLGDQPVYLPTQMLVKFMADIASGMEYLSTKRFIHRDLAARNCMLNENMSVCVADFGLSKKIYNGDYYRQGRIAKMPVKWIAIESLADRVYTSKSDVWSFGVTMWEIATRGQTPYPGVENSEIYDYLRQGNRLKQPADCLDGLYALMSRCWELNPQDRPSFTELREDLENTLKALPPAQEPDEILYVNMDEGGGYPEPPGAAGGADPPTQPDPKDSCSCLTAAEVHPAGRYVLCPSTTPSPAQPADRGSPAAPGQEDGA
# Assay: Axl NanoBRET intracellular kinase assay (intracellular binding, K-5 tracer displacement)
# Design: host or cells: HEK-293
# Conditions: HEK-293 cells transfected with Axl-NanoLuc, 0.35 μM K-5 NanoBRET tracer; read-out: Cell Binding AXL
# Outline: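 HEK-293 cells transiently transfected with Axl-NanoLuc, 8K cells/well at 0.5% DMSO, pre-incubated 1 h with compound at 37 °C, then 2 h with 0.35 μM K-5 tracer. BRET ratio 610/450 nm; IC50 by 4-parameter fit of tracer displacement.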
row,IC50 [nM],SMILES
1,100 to 1000,"c1cncc(-c2ccc(-c3n[nH]c4ncc(-c5ccc6c(c5)CC[C@@H](N5C7COCC5C7)CC6)cc34)cc2)c1 [Example 157, 6-[(7S)-2-{3-[4-(Pyridin-3-yl)phenyl]-2H-pyrazolo[3,4-b]pyridin-5-yl}-6,7,8,9-tetrahydro-5H-benzo[7]annulen-7-yl]-3-oxa-6-azabicyclo[3.1.1]heptane]"
2,< 100,"CS(=O)(=O)c1ccccc1-c1ccc(-c2c[nH]c3ncc(-c4ccc5c(c4)CC[C@@H](N4C6COCC4C6)CC5)cc23)cc1 [Example 93, 6-[(7S)-2-(3-{2′-Methanesulfonyl-[1,1′-biphenyl]-4-yl}-1H-pyrrolo[2,3-b]pyridin-5-yl)-6,7,8,9-tetrahydro-5H-benzo[7]annulen-7-yl]-3-oxa-6-azabicyclo[3.1.1]heptane]"
3,< 100,"N#Cc1cccnc1-c1ccc(-c2c[nH]c3ncc(-c4ccc5c(c4)CC[C@@H](N4C6COCC4C6)CC5)cc23)cc1 [Example 46, 2-(4-{5-[(7S)-7-{3-Oxa-6-azabicyclo[3.1.1]heptan-6-yl}-6,7,8,9-tetrahydro-5H-benzo[7]annulen-2-yl]-1H-pyrrolo[2,3-b]pyridin-3-yl}phenyl)pyridine-3-carbonitrile]"
